Measured values reported in patent US7524930B2, “Tumor antigen” (Green Peptide Co., Ltd, priority 2003, dated 2009).

Experiments:
OK-CTLp or OK-CTL clone = experiment: Recognition of peptide-pulsed T2 cells by OK-CTLp or OK-CTL clone (IFN-γ ELISA); assay type: cell-based, human
[1] = tested on: human peripheral blood mononuclear cells (PBMC); experiment: CTL induction by peptide from PBMC of HLA-A2-positive cancer patients and healthy individuals, IFN-γ against peptide-pulsed T2 cells (Example 6); assay type: cell-based; conditions: for INF-γ production: peptide-pulsed T2 cells; for Healthy individuals in whom CTL were induced from PBMC: six healthy individuals; for Patients in whom peptide-specific HLA-A2-restricted CTL were induced from PBMC: sixteen HLA-A2-positive cancer patients
Method: For six peptides (P21, P22, P24, P26, P30, and P32) with a purity of 95% or higher among peptides from P20 to P32 derived from gene 7 and CPSF among the tumor antigen peptide obtained in Example 4, the activity to induce CTL in vitro from human peripheral blood mononuclear cells (PBMC) was examined using IFN-γ production as an indicator. PBMC used was prepared from each peripheral blood of sixteen HLA-A2-positive cancer patients (4 patients with pancreatic cancer, seven patients with stomach cancer, and 5 patients with colon cancer) and six healthy individuals. Specifically, 1×10^5 PBMC was added to each well of 96-well U-bottom type microculture plate (Nunc Corp.) and incubated together with 10 μM of each of the above-described peptides in 200 μl culture medium. The culture medium consisted of 45% RPMI-1640, 45% AIM-V (Invitrogen Corp.,) 10% fetal calf serum (FCS), 100U/ml of human interleukin-2, and […] MEM nonessential amino acid solution (Invitrogen Corp.). At day 4 and day 7 after the start of culturing, half of the culture medium was removed and replaced with the above-described composition containing each corresponding peptide. At day 10 after the start of culturing, the cells were collected and washed, followed by reacting with T2 cells, which were pulsed with each corresponding peptide, to measure the amount of IFN-γ produced.

[2] = tested on: Panc-1 pancreatic adenocarcinoma cell (HLA-A2); experiment: 6-h 51Cr-releasing test of peptide-stimulated PBMC against Panc-1 (Example 6); assay type: cell-based, human
Method: Meanwhile, the above-described cells cultured for 10 days after stimulation by the peptide were further cultured for 10 days. The cytotoxicity of the obtained cells against the Panc-1 pancreatic adenocarcinoma cell (HLA-A2) was measured by the standard 6-h ^51Cr-releasing test in an E/T ratio of 10:1. The results obtained are presented as % specific lysis (table 7). Together with this step, cytotoxicity against SSTW-9 tumor cell as the HLA-A2^− tumor cell was measured to use as a background that was subtracted from the above-described result.

[3] = concentration of peptide 0.1 μM
[4] = PBMC of colon cancer patient 12
[5] = PBMC of colon cancer patient 13
[6] = PBMC of colon cancer patient 14
[7] = PBMC of colon cancer patient 15
[8] = PBMC of colon cancer patient 16
[9] = PBMC of pancreatic cancer patient 1
[10] = PBMC of pancreatic cancer patient 2
[11] = PBMC of pancreatic cancer patient 3
[12] = PBMC of pancreatic cancer patient 4
[13] = PBMC of stomach cancer patient 5
[14] = PBMC of stomach cancer patient 6
[15] = PBMC of stomach cancer patient 7
[16] = PBMC of stomach cancer patient 8
[17] = PBMC of stomach cancer patient 9
[18] = PBMC of stomach cancer patient 10
[19] = PBMC of stomach cancer patient 11
[20] = PBMC of colon cancer patient 12, Panc-1, E/T 10:1
[21] = PBMC of colon cancer patient 14, Panc-1, E/T 10:1
[22] = PBMC of pancreatic cancer patient 2, Panc-1, E/T 10:1, SSTW-9 background subtracted
[23] = PBMC of pancreatic cancer patient 4, Panc-1, E/T 10:1

Sequence	IFN-γ production (OK-CTLp or OK-CTL clone; [3])	IFN-γ production (OK-CTLp or OK-CTL clone; concentration of peptide 1 μM)	IFN-γ production (OK-CTLp or OK-CTL clone; concentration of peptide 10 μM)	IFN-γ production (OK-CTLp or OK-CTL clone; concentration of peptide 50 μM)	INF-γ production [1, 4]	INF-γ production [1, 5]	INF-γ production [1, 6]	INF-γ production [1, 7]	INF-γ production [1, 8]	INF-γ production ([1]; PBMC of healthy individual HD1)	INF-γ production ([1]; PBMC of healthy individual HD2)	INF-γ production ([1]; PBMC of healthy individual HD3)	INF-γ production ([1]; PBMC of healthy individual HD4)	INF-γ production ([1]; PBMC of healthy individual HD5)	INF-γ production ([1]; PBMC of healthy individual HD6)	INF-γ production [1, 9]	INF-γ production [1, 10]	INF-γ production [1, 11]	INF-γ production [1, 12]	INF-γ production [1, 13]	also measured
DMWTVIAPV (Designed peptide having an ability to activate HLA-A2 restricted Cytotoxic T lymphocytes) [Peptide P22, CPSF 534-542]	254 pg/mL	1027 pg/mL	431 pg/mL	407 pg/mL	92 pg/mL	179 pg/mL	80 pg/mL	5 pg/mL	0 pg/mL	0 pg/mL	0 pg/mL	0 pg/mL	0 pg/mL	0 pg/mL	14 pg/mL	0 pg/mL	38 pg/mL	0 pg/mL	8 pg/mL	0 pg/mL	INF-γ production [1, 14]: 0 pg/mL; INF-γ production [1, 15]: 0 pg/mL; INF-γ production [1, 16]: 0 pg/mL; INF-γ production [1, 17]: 0 pg/mL; INF-γ production [1, 18]: 0 pg/mL; INF-γ production [1, 19]: 0 pg/mL; Healthy individuals in whom CTL were induced from PBMC [1]: 33%; Patients in whom peptide-specific HLA-A2-restricted CTL were induced from PBMC [1]: 38%; % specific lysis [2, 20]: 28%; % specific lysis [2, 21]: 19%; % specific lysis [2, 22]: 37%
KVHPVIWSL [Peptide P21]	428 pg/mL	501 pg/mL	81 pg/mL	195 pg/mL	0 pg/mL	0 pg/mL	66 pg/mL	0 pg/mL	140 pg/mL	0 pg/mL	0 pg/mL	58 pg/mL	5 pg/mL	224 pg/mL	97 pg/mL	0 pg/mL	7 pg/mL	0 pg/mL	543 pg/mL	0 pg/mL	INF-γ production [1, 14]: 0 pg/mL; INF-γ production [1, 15]: 0 pg/mL; INF-γ production [1, 16]: 5 pg/mL; INF-γ production [1, 17]: > 1500 pg/mL; INF-γ production [1, 18]: 0 pg/mL; INF-γ production [1, 19]: 136 pg/mL; Healthy individuals in whom CTL were induced from PBMC [1]: 50%; Patients in whom peptide-specific HLA-A2-restricted CTL were induced from PBMC [1]: 31%; % specific lysis [2, 21]: 11%; % specific lysis [2, 23]: 12%; % specific lysis ([2]; PBMC of stomach cancer patient 9, Panc-1, E/T 10:1): 27%; % specific lysis ([2]; PBMC of stomach cancer patient 11, Panc-1, E/T 10:1): 18%
LLLKYTEKL [Peptide P24]	728 pg/mL	–	103 pg/mL	2 pg/mL	–	–	–	–	–	–	–	–	–	–	–	–	–	–	–	–	–
LLRRADFHV (Designed peptide having an ability to activate HLA-A2 restricted Cytotoxic T lymphocytes) [Peptide P26, Gene 7 1296-1304]	141 pg/mL	418 pg/mL	1239 pg/mL	0 pg/mL	0 pg/mL	0 pg/mL	0 pg/mL	40 pg/mL	45 pg/mL	0 pg/mL	0 pg/mL	0 pg/mL	0 pg/mL	13 pg/mL	0 pg/mL	0 pg/mL	35 pg/mL	0 pg/mL	77 pg/mL	53 pg/mL	INF-γ production [1, 14]: 0 pg/mL; INF-γ production [1, 15]: 0 pg/mL; INF-γ production [1, 16]: 11 pg/mL; INF-γ production [1, 17]: 8 pg/mL; INF-γ production [1, 18]: 0 pg/mL; INF-γ production [1, 19]: 0 pg/mL; Patients in whom peptide-specific HLA-A2-restricted CTL were induced from PBMC [1]: 31%; % specific lysis ([2]; PBMC of colon cancer patient 15, Panc-1, E/T 10:1): 12%; % specific lysis [2, 22]: 36%; % specific lysis [2, 23]: 20%; % specific lysis ([2]; PBMC of stomach cancer patient 5, Panc-1, E/T 10:1): 11%
LMLQNALTIM (LMLQNALTTM; Designed peptide having an ability to activate HLA-A2 restricted Cytotoxic T lymphocytes) [Peptide P30, Gene 7 1359-1368]	88 pg/mL	7001 pg/mL	–	–	0 pg/mL	41 pg/mL	33 pg/mL	0 pg/mL	68 pg/mL	0 pg/mL	0 pg/mL	14 pg/mL	0 pg/mL	0 pg/mL	0 pg/mL	0 pg/mL	12 pg/mL	0 pg/mL	73 pg/mL	0 pg/mL	INF-γ production [1, 14]: 0 pg/mL; INF-γ production [1, 15]: 0 pg/mL; INF-γ production [1, 16]: 146 pg/mL; INF-γ production [1, 17]: 92 pg/mL; INF-γ production [1, 18]: 46 pg/mL; INF-γ production [1, 19]: 0 pg/mL; Patients in whom peptide-specific HLA-A2-restricted CTL were induced from PBMC [1]: 44%; % specific lysis ([2]; PBMC of colon cancer patient 13, Panc-1, E/T 10:1): 12%; % specific lysis [2, 21]: 10%; % specific lysis [2, 23]: 11%; % specific lysis ([2]; PBMC of stomach cancer patient 8, Panc-1, E/T 10:1): 18%; % specific lysis ([2]; PBMC of stomach cancer patient 10, Panc-1, E/T 10:1): 26%
SLLYLNQSV [Peptide P20]	344 pg/mL	643 pg/mL	0 pg/mL	34 pg/mL	–	–	–	–	–	–	–	–	–	–	–	–	–	–	–	–	–
TMLPHHAGL [Peptide P25]	69 pg/mL	1569 pg/mL	25 pg/mL	122 pg/mL	–	–	–	–	–	–	–	–	–	–	–	–	–	–	–	–	–
TQLATYSFEV (Designed peptide having an ability to activate HLA-A2 restricted Cytotoxic T lymphocytes) [Peptide P32, CPSF 456-465]	–	–	–	–	57 pg/mL	0 pg/mL	0 pg/mL	0 pg/mL	4 pg/mL	0 pg/mL	0 pg/mL	0 pg/mL	0 pg/mL	0 pg/mL	0 pg/mL	0 pg/mL	12 pg/mL	0 pg/mL	0 pg/mL	0 pg/mL	INF-γ production [1, 14]: 0 pg/mL; INF-γ production [1, 15]: 0 pg/mL; INF-γ production [1, 16]: 0 pg/mL; INF-γ production [1, 17]: 0 pg/mL; INF-γ production [1, 18]: 0 pg/mL; INF-γ production [1, 19]: 0 pg/mL; Patients in whom peptide-specific HLA-A2-restricted CTL were induced from PBMC [1]: 7%; % specific lysis [2, 20]: 18%
YQLPDWRLV [Peptide P29]	0 pg/mL	–	86 pg/mL	362 pg/mL	–	–	–	–	–	–	–	–	–	–	–	–	–	–	–	–	–
